In US20080299166A1, “NOVEL BIOMATERIALS, THEIR PREPARATION AND USE” (priority 2002, published 2008):

Experiment: In vitro release of Ketotifen-hydrogenfumarate from drug-loaded polymeric matrix
Assay type: physicochemical
Conditions: under the same conditions (stirred aqueous system)
Method: Two consecutive batches of the polymeric matrix were prepared at lab scale and loaded with the selected water-soluble investigational drug, Ketotifen hydrogenfumarate in accordance with the method described in Example 11. The in vitro release profile of the Ketotifen depot formulation was carried out as follows: […]
1 g of the dry polymeric matrix loaded with Ketotifen-hydrogenfumarate according to Example 11. was stirred with 600 r.p.m. in 50 ml of deionised water at 37° C. The released amount of Ketotifen-hydrogenfumarate was determined by HPLC.
Matrices with 8% Ketotifen load were prepared as described in Example 11. Using two different Hyaluronic acid containing reaction mixtures. One contained 1%, while the other 0.5% hyaluronic acid. […] (See Table 7.) The in vitro dissolution test was performed as described in Example 12.

- release compared with the matrix: much faster
SMILES: CN1CCC(=C2c3ccccc3CC(=O)c3sccc32)CC1 [non-formulated plain Ketotifen, Ketotifen-hydrogenfumarate]
